Source: US4356188A, “1-Naphthyl-acetic acid derivatives and their therapeutic applications” (Institut de Recherche Scientifique "I.R.S.", priority 1978, dated 1982)
Read-outs that look alike come from different tables or passages of the source.

How the values were obtained:
in vivo = settings: rat, po, read-out: Acute toxicity LD 50
Description: Groups of 5 male CH. River rats, having an average weight of 125 g, kept on a water diet for 18 hours prior to the test, are orally administered the test materials, dissolved in neutral olive oil (1 ml/100 g), at dosages of 250-500-1000 and 2000 mg/kg.
The death rate is recorded 7 days after the administration: the lethal dose 50 (LD 50) is determined according to the method by Litchfield & Wilcoxon.

[1] = Ulcerogenic activity (Robert & Nezamis, modified by Lwoff); set-up: species or system rats of Ch. River strain; settings: rat, in vivo
Description: The technique used is that according to Robert & Nezamis (Proc. Soc. Exp. Biol. Med., 1958,99,443-447) as modified by Lwoff (J. Pharmacol. (Paris) 1971, 2, 81-83).
Groups of 20 rats of Ch. River strain (average weight: 130 g) kept on a water diet for the 24 hours prior to the test, are orally administered the test materials, at dosages of 50-100-200-400 and 800 mg/kg. A reference group is administered only neutral olive oil, at a dosage of 1 ml/100 g.
Six hours later, the animals are sacrificed by bulbar trauma, after which their stomachs are cut out, opened along the great curvature and rated according to a scale from 0 to 3, according to the extent of the ulceration.
The ulceration index for each dosage is calculated according to the following formula: [formula]
With this scoring method, a 100% ulceration index is equal to 300. The 50% ulcerogenic dosage (UD 50) is that which corresponds to an index of 150.

[2] = Anti-inflammatory activity: carrageenin-induced plantar edema test (Winter); format: in vivo; settings: Rattus norvegicus; rats, oral, 1 hour before 1% carrageenin; mean of 7 hourly determinations; dosages in method 25-50-100 mg/kg; read-out: Anti-inflammatory activity ID 50
Description: The test selected is the test of the carrageenin-induced plantar edema, according to Winter (Proc. Soc. Exp. Biol., 1961, 111, 544). […] A fourth group (control) is administered only neutral olive oil (1 ml/100 g). One hour after the treatment, 0.1 ml of a 1% carrageenin suspension is injected in the left plantar aponevrosis. The intensity of the edema is evaluated by immersing the inflamed paw in a mercury plethystometer. The percent inhibition of the edema is calculated from the mean value of the 7 determinations made hourly after carrageenin administration. The dosage which inhibits inflammation by 50% (ID 50) is determined in the same manner as previously described.

[3] = Anti-pyretic activity: brewer's yeast-induced fever; format: in vivo; settings: Rattus norvegicus; rats, oral, 17 hours after brewer's yeast; mean of 5 hourly determinations; dosages in method 25-50-100 mg/kg; read-out: Anti-pyretic activity ID 50
Description: After determination of the rectal temperature, rats are sub-cutaneously administered 1 ml/100 g of a 20% brewer's yeast suspension, and are put on a water diet. 17 hours later, their temperature is again determined. The mean increase of the rectal temperature, under such experimental conditions, is about 1.5° C. The various test materials are then orally administered to groups of 10 rats (average weight: 140 g) at dosages of 25-50 and 100 mg/kg. A fourth group (control) is administered only olive oil (1 ml/100 g). The temperature drop subsequent to the treatment is followed hourly, for a period of time of 5 hours. The mean percent inhibition is calculated by effecting the mean of the 5 determinations, with respect to the value 1.5° C.

[4] = Antalgic activity: phenylbenzoquinone-induced writhing (Sigmund, modified); format: in vivo, male Ch. River mice; settings: Mus musculus, po; mice, p.o., 30 minutes before phenylbenzoquinone; spasms counted fifth to tenth minute; dosages in method 25-50-100 mg/kg; read-out: Antalgic activity ID 50
Description: The method used is that according to Sigmund and co-workers (Soc. Exp. Biol. Med. 1957, 95, 729) as modified by Hendershot & Forsaith (J. Pharm. Exp. Therap. 1959, 125, 237-240) and Lines & Gouret (J. Pharm. (Paris) 1972, 3, 513-515). Intraperitoneal administration of 0.25 ml/20 g, in mice, of a 0.02% phenylbenzoquinone solution in 5% alcohol, produces the development of a pain syndrome which is characterized by writhing movements and by hollow flanks. Treatment of groups of 10 male Ch. River mice (average weight: 20 g) at dosages of 25-50 and 100 mg/kg p.o. (a control group being administered only neutral olive oil; 0.5 ml/20 g) is effected 30 minutes prior to phenylbenzoquinone administration. The ID 50 is calculated as previously indicated, from the percent inhibition of the spasms counted from the fifth to the tenth minute that follow the injection of the algogenic agent.

| Compound | LD50 at 168 h (in vivo) [mg/kg] | TD50 at 6 h ([1]; po) [mg/kg] | ED50 [2] [mg/kg] | ED50 [3] [mg/kg] | ED50 [4] [mg/kg] | TD50 at 6 h ([1]; rats, oral, 6 hours, dose giving ulceration index 150, dosages in method 50-800 mg/kg, read-out: Ulcerogenic activity UD 50) [mg/kg] |
| --- | --- | --- | --- | --- | --- | --- |
| CC(C)Cc1cccc2c(CC(=O)O)cccc12 [Derivative 1, [5-isobutyl-1-naphthyl]acetic acid] | 600 | > 800 | 15 | 0.7 | 24 | – |
| CC(C)Cc1cccc2c(C(C)C(=O)O)cccc12 (centres unmarked) [Derivative 2, 2-[5-isobutyl-1-naphthyl]propionic acid] | 130 | – | 5 | < 1 | 4 | – |
| COc1ccc2cc([C@H](C)C(=O)O)ccc2c1 [naproxen, reference compound] | – | – | 3 | 4.1 | 10.6 | 43 |
| CC(C)Cc1ccc(C(C)C(=O)O)cc1 (centres unmarked) [ibuprofen, reference compound] | – | 220 | 38 | 12 | 9 | – |
